“And” between values parts separate entries of the source, which are not always exact repeats. Equal entries are not always repeated.
What was measured:
[1] = tested on: human embryonic stem cell line H9; test: Cytokine array analysis of cell lysates and conditioned media; type: cell-based; set-up: key to BMP-4 expression / BMP-6 expression / EGF expression / FGF-6 expression / Fractalkine expression / GCP-2 expression / IL-3 expression / IL-4 expression / IL-6 expression / M-CSF expression / MIG expression / Amphiregulin expression: cytokine array signal, normalized and background-subtracted
Experimental: The effect that Wnt-3a treatment has on cytokine expression was analyzed using a protein array. Cells of the human embryonic stem cell line H9 were cultured according to the methods described in Example 15. At passage 54, cells were differentiated in the presence of 100 ng/ml ActivinA+/−10 ng/ml Wnt3a for 2 days in 0.5% FBS DMEM/F12. Cells were subsequently cultured for an additional three days in 100 ng/mlActivin A and 2% FBS DMEM/F12. At the end of the 5th day, CXCR4 expression was determined by FACS for each treatment group.
Cell lysates were prepared from cells of each treatment group, with a mammalian cell lysis kit (Sigma-Aldrich, MO). Conditioned media from each treatment group was collected and concentrated. Cytokine array analysis was completed using Cytokine Array panels provided by RayBiotech, GA (http://www.raybiotech.com/). Table VII lists cytokine, growth factor, and receptor expression following normalization of the data and background subtraction. For each panel, positive and negative controls are also included. Th data shown are two independent samples per cell treatment group (1,2).

[2] = tested on: human embryonic stem cell line H7; test: FACS analysis of protein expression following activin A treatment, H7; type: cell-based; conditions: AA 100 ng/ml
From the text: The level of expression of definitive endoderm markers was examined by PCR (FIG. 1), FACS (results summarized in Table II), and immunohistochemistry (FIG. 2).
CXCR4 positive cells were also highly positive for C-kit, EPCAM, CD99, and negative for CD9. The expression pattern for these markers was consistent among all three hES cell lines examined (Table IIB for H7 and Table IIC for H1). […] In parallel, almost 100% of the differentiated cells were […] (FIG. 2).
Adhered cells were removed from culture plates by five-minute incubation with TrypLE™ Express solution (Invitrogen, CA). Released cells were resuspended in human embryonic stem cell culture medium and recovered by centrifugation, followed by washing and resuspending the cells in a staining buffer consisting of 2% BSA, 0.05% sodium azide in PBS (Sigma, MO). As appropriate, the cells were Fc-receptor blocked for 15 minutes using a 0.1% γ-globulin (Sigma) solution. […] Controls included appropriate isotype matched antibodies, unstained cells, and cells stained only with secondary conjugated antibody. All incubations with antibodies were performed for 30 mins at 4° C. after which the cells were washed with the staining buffer. Samples that were stained with unconjugated primary antibodies were incubated for an additional 30 mins at 4° C. with secondary conjugated PE or -APC labeled antibodies. See Table I for a list of secondary antibodies used. Washed cells were pelleted and resuspended in the staining buffer, and the cell surface molecules were identified using a FACS Array (BD Biosciences) instrument, collecting at least 10,000 events.

In the case of “Activin A: a member of the TGFβ superfamily; R&D Systems; Group 2 = Activin A (100 ng/ml)”, the 1L-1beta expression ([1]; Cell conditioned media) is reported as 117.99 and 75.93, the 1L-1ra expression ([1]; Cell conditioned media) is reported as 142.34 and 93.74 and the Acrp30 expression ([1]; Cell conditioned media) is reported as 1,797.52 and 1,319.88. The AgRP expression ([1]; Cell conditioned media) was 378.17 and 195.90, the Amphiregulin expression ([1]; Cell conditioned media) was 250.52 and 151.01 and the Angiogenin expression ([1]; Cell conditioned media) was 13,726.35 and 11,749.55. For the same substance, the Angiopoietin-2 expression ([1]; Cell conditioned media) was 655.82 and 632.60, the AxI expression ([1]; Cell conditioned media) was 401.31 and 324.05 and the BDNF expression ([1]; Cell conditioned media) was 689.22 and 563.39. The BMP-4 expression ([1]; Cell conditioned media) was 583.40 and 541.83, the BMP-6 expression ([1]; Cell conditioned media) was 354.91 and 355.28 and the “CK beta 8-1 expression” value ([1]; Cell conditioned media) was 17.79 and 25.31. For the same substance, the CNTF expression ([1]; Cell conditioned media) was 282.81 and 211.86, the EGF expression ([1]; Cell conditioned media) was 1,681.85 and 1,406.12 and the Eotaxin expression ([1]; Cell conditioned media) was 207.89 and 199.67. The Eotaxin-2 expression ([1]; Cell conditioned media) was 890.56 and 744.31, the Eotaxin-3 expression ([1]; Cell conditioned media) was 975.77 and 665.56 and the FGF-7 expression ([1]; Cell conditioned media) was 449.49 and 352.47. For the same substance, the “Flt-3 Ligand expression” value ([1]; Cell conditioned media) was 315.58 and 277.47, the Fractalkine expression ([1]; Cell conditioned media) was 120.80 and 145.30 and the GCP-2 expression ([1]; Cell conditioned media) was 203.21 and 166.86. The GDNF expression ([1]; Cell conditioned media) was 176.99 and 194.98, the GM-CSF expression ([1]; Cell conditioned media) was 777.25 and 722.75 and the IFN-gamma expression ([1]; Cell conditioned media) was 283.74 and 559.64. The IGF-I expression ([1]; Cell conditioned media) was 88.96 and 148.11, the IGFBP-1 expression ([1]; Cell conditioned media) was 33.71 and 24.37 and the IGFBP-2 expression ([1]; Cell conditioned media) was 27,656.85 and 28,473.95. For the same substance, the IGFBP-4 expression ([1]; Cell conditioned media) was 10,091.09 and 6,029.45, the IL-1alpha expression ([1]; Cell conditioned media) was 10,155.70 and 5,842.90 and the IL-2 expression ([1]; Cell conditioned media) was 188.22 and 363.72. For the same substance, the IL-3 expression ([1]; Cell conditioned media) was 4,598.86 and 5,260.77, the IL-4 expression ([1]; Cell conditioned media) was 357.72 and 239.04 and the IL-6 expression ([1]; Cell conditioned media) was 7,377.28 and 9,527.88. For the same substance, the IL-7 expression ([1]; Cell conditioned media) was 456.98 and 430.27, the IL-10 expression ([1]; Cell conditioned media) was 722.93 and 564.32 and the IL-16 expression ([1]; Cell conditioned media) was 259.39 and 214.67. For the same substance, the LIGHT expression ([1]; Cell conditioned media) was 619.92 and 453.71, the Leptin expression ([1]; Cell conditioned media) was 2,999.42 and 2,016.38 and the M-CSF expression ([1]; Cell conditioned media) was 529.09 and 269.04. For the same substance, the MCP-1 expression ([1]; Cell conditioned media) was 572.17 and 500.58, the MCP-4 expression ([1]; Cell conditioned media) was 123.61 and 61.87 and the MIG expression ([1]; Cell conditioned media) was 272.50 and 486.52. The NAP-2 expression ([1]; Cell conditioned media) was 97.39 and 110.61, the NT-3 expression ([1]; Cell conditioned media) was 97.39 and 171.55 and the PDGF-BB expression ([1]; Cell conditioned media) was 4,729.96 and 8,521.09. For the same substance, the RANTES expression ([1]; Cell conditioned media) was 393.31 and 347.78, the SCF expression ([1]; Cell conditioned media) was 691.09 and 487.46 and the “TGF-beta 1 expression” value ([1]; Cell conditioned media) was 752.90 and 740.56. The “TGF-beta 3 expression” value ([1]; Cell conditioned media) was 111.44 and 115.30, the TNF-beta expression ([1]; Cell conditioned media) was 675.17 and 671.19 and the bFGF expression ([1]; Cell conditioned media) was 7,948.03 and 4,993.83. For the same substance, the 1L-1beta expression ([1]; Cell lysate) was 1.00 and 1.13, the 1L-1ra expression ([1]; Cell lysate) was 33.00 and 25.91 and the Amphiregulin expression ([1]; Cell lysate) was 17.50 and 15.44. The AxI expression ([1]; Cell lysate) was 637.50 and 795.83, the BDNF expression ([1]; Cell lysate) was 167.50 and 167.82 and the BMP-4 expression ([1]; Cell lysate) was 247.00 and 273.70. The “CK beta 8-1 expression” value ([1]; Cell lysate) was 1.00 and 1.13, the Eotaxin-2 expression ([1]; Cell lysate) was 262.00 and 336.77 and the Eotaxin-3 expression ([1]; Cell lysate) was 184.50 and 284.96. For the same substance, the FGF-6 expression ([1]; Cell lysate) was 629.00 and 379.57, the GM-CSF expression ([1]; Cell lysate) was 433.00 and 636.37 and the I-309 expression ([1]; Cell lysate) was 152.50 and 246.10. For the same substance, the IFN-gamma expression ([1]; Cell lysate) was 349.00 and 441.52, the IGFBP-2 expression ([1]; Cell lysate) was 3,785.50 and 5,554.45 and the IGFBP-4 expression ([1]; Cell lysate) was 5,553.00 and 6,043.27. The IL-1alpha expression ([1]; Cell lysate) was 1,236.00 and 1,216.99, the IL-5 expression ([1]; Cell lysate) was 400.50 and 555.84 and the IL-6 expression ([1]; Cell lysate) was 828.50 and 516.98. The IL-7 expression ([1]; Cell lysate) was 190.00 and 313.12, the IL-13 expression ([1]; Cell lysate) was 428.50 and 555.84 and the IL-15 expression ([1]; Cell lysate) was 599.50 and 808.13. For the same substance, the Leptin expression ([1]; Cell lysate) was 900.50 and 617.79, the MCP-1 expression ([1]; Cell lysate) was 242.50 and 282.71 and the MIG expression ([1]; Cell lysate) was 291.00 and 226.39. For the same substance, the MIP-1-delta expression ([1]; Cell lysate) was 1.50 and 1.13, the NT-3 expression ([1]; Cell lysate) was 1.00 and 1.13 and the SCF expression ([1]; Cell lysate) was 74.50 and 148.67. The “TGF-beta 1 expression” value ([1]; Cell lysate) was 362.00 and 230.33, the TNF-alpha expression ([1]; Cell lysate) was 431.00 and 579.49 and the TNF-beta expression ([1]; Cell lysate) was 241.00 and 342.40. For the same substance, the bFGF expression ([1]; Cell lysate) was 59,820.50 and 54,057.29, the “CXCR4+” value ([2]; 1-day) was 6% and the “CXCR4+ C-Kit+” value ([2]; 1-day) was 2.97%. For the same substance, the “CXCR4+ CD9+” value ([2]; 1-day) was 8.13%, the “CXCR4+ EPCAM+” value ([2]; 1-day) was 14.58% and the “CXCR4+” value ([2]; 3-day) was 38%. For the same substance, the “CXCR4+ C-Kit+” value ([2]; 3-day) was 31.56%, the “CXCR4+ CD9+” value ([2]; 3-day) was 24.11% and the “CXCR4+ EPCAM+” value ([2]; 3-day) was 36.67%. The “CXCR4+” value ([2]; 5-day) was 65.5%, the “CXCR4+ C-Kit+” value ([2]; 5-day) was 55.21% and the “CXCR4+ CD9+” value ([2]; 5-day) was 2.1%. The “CXCR4+ EPCAM+” value ([2]; 5-day) was 54.5%.
